{"source": "patent US20170266213A1", "about": "“USE OF BETA-NICOTINAMIDE MONONUCLEOTIDE IN PREPARATION OF ANTI-AGING DRUGS OR HEALTH-CARE PRODUCTS” (BONTAC BIO-ENGINEERING (SHENZHEN) CO., LTD, priority 2015, published 2017)", "test_system": "Kunming mice (aged about 52 weeks)", "assay": "Mouse survival test", "format": "in vivo", "procedure": "1.1 Experimental material: β-nicotinamide mononucleotide (NMN)\n1.2 Experimental animal: Kunming mice (aged about 52 weeks)\n1.3 Administration method:\nBlank group: fed on full diet;\nTreatment group: fed on full diet supplemented with NMN (containing adjuvants) fully dissolved in water, where a single dose of NMN is 20 mg/Kg body weight/day;\nControl group: fed on full diet supplemented with adjuvants equivalent to those in the Treatment group;\nMouse survival test: […] aged 52 weeks were assigned to two groups (that is, a blank control group and a treatment group) at random, each group having 40 animals.\nExperimental method: see Function Evaluation procedures and Specification of test methods for health food—(2003 Edition, the Ministry of Health).", "data": [{"smiles": "NC(=O)c1ccc[n+]([C@@H]2O[C@H](COP(=O)([O-])O)[C@@H](O)[C@H]2O)c1", "note": "[NMN, β-nicotinamide mononucleotide]", "values": [{"measurement": "extension of the lifespan of mice", "setting": "NMN 20 mg/Kg body weight/day, versus blank and control groups (Table 1)", "result": "about 29%"}, {"measurement": "Morbility over 100 weeks (%)", "setting": "aged 52 weeks at start, NMN 20 mg/Kg body weight/day in full diet, 100 weeks", "result": 38, "unit": "%"}, {"measurement": "Morbility over 120 weeks (%)", "setting": "aged 52 weeks at start, NMN 20 mg/Kg body weight/day in full diet, 120 weeks", "result": 52, "unit": "%"}, {"measurement": "Morbility over 140 weeks (%)", "setting": "aged 52 weeks at start, NMN 20 mg/Kg body weight/day in full diet, 140 weeks", "result": 61, "unit": "%"}, {"measurement": "Morbility over 160 weeks (%)", "setting": "aged 52 weeks at start, NMN 20 mg/Kg body weight/day in full diet, 160 weeks", "result": 74, "unit": "%"}, {"measurement": "Morbility over 180 weeks (%)", "setting": "aged 52 weeks at start, NMN 20 mg/Kg body weight/day in full diet, 180 weeks", "result": 100, "unit": "%"}, {"measurement": "effect on the lifespan of mice (in words)", "setting": "composition containing NMN", "result": "obviously extend the lifespan of mice"}]}]}
